{"source": "patent US9469650B2", "about": "“Melampomagnolide B derivatives” (BOARD OF TRUSTEES OF THE UNIVERSITY OF ARKANSAS, priority 2013, dated 2016)", "key": {"OVCAR-5": {"system": "OVCAR-5", "test": "panel of 60 human tumor cell lines, growth inhibition (Ovarian Cancer)"}, "SW-620": {"system": "SW-620", "test": "panel of 60 human tumor cell lines, growth inhibition (Colon Cancer)", "conditions": "for GI50: SW-620, SW-620; for Percent Growth: SW-620"}, "SK-OV-3": {"system": "SK-OV-3", "test": "panel of 60 human tumor cell lines, growth inhibition (Ovarian Cancer)"}, "TK-10": {"system": "TK-10", "test": "panel of 60 human tumor cell lines, growth inhibition (Renal Cancer)", "conditions": "for GI50: TK-10, TK-10; for Percent Growth: TK-10"}, "NCI-H23": {"system": "NCI-H23", "test": "panel of 60 human tumor cell lines, growth inhibition (Non-Small Cell Lung Cancer)"}, "M14": {"system": "M14", "test": "panel of 60 human tumor cell lines, growth inhibition (Melanoma)"}, "NCI-H522": {"system": "NCI-H522", "test": "panel of 60 human tumor cell lines, growth inhibition (Non-Small Cell Lung Cancer)"}, "SK-MEL-2": {"system": "SK-MEL-2", "test": "panel of 60 human tumor cell lines, growth inhibition (Melanoma)"}, "SF-268": {"system": "SF-268", "test": "panel of 60 human tumor cell lines, growth inhibition (CNS Cancer)"}}}
{"molecule": "C=C1C(=O)O[C@H]2[C@H]1CC/C(COC(=O)NCCc1ccccn1)=C\\CC[C@@]1(C)O[C@@H]21", "note": "[JVM 61, ((1aR,7aS,10aS,10bS,E)-1a-methyl-8-methylene-9-oxo-1a,2,3,6,7,7a,8,9,10a,10b-decahydrooxireno[2′,3′:9,10]cyclodeca[1,2-b]furan-5-yl)methyl-(2-(pyridin-2-yl)ethyl)carbamate]", "values": [{"measurement": "GI50", "setting": "OVCAR-5; Homo sapiens, OVCAR-5", "value": 10.2, "unit": "µM"}, {"measurement": "CC50", "setting": "OVCAR-5; Homo sapiens, OVCAR-5, read-out: LC50", "value": 49.5, "unit": "µM"}, {"measurement": "IC (TGI)", "setting": "OVCAR-5; Homo sapiens, OVCAR-5, read-out: TGI", "value": 22.5, "unit": "µM"}, {"measurement": "Percent Growth", "setting": "OVCAR-5; OVCAR-5, Log10 Concentration −4.0", "value": "−94", "unit": "%"}, {"measurement": "Percent Growth", "setting": "OVCAR-5; OVCAR-5, Log10 Concentration −5.0", "value": 51, "unit": "%"}, {"measurement": "Percent Growth", "setting": "OVCAR-5; OVCAR-5, Log10 Concentration −6.0", "value": 96, "unit": "%"}, {"measurement": "Percent Growth", "setting": "OVCAR-5; OVCAR-5, Log10 Concentration −7.0", "value": 97, "unit": "%"}, {"measurement": "Percent Growth", "setting": "OVCAR-5; OVCAR-5, Log10 Concentration −8.0", "value": 107, "unit": "%"}, {"measurement": "GI50", "setting": "SW-620; Homo sapiens", "value": 3.13, "unit": "µM"}, {"measurement": "GI50", "setting": "SW-620; Homo sapiens, 5-dose assay", "value": 3.13, "unit": "µM"}, {"measurement": "CC50", "setting": "SW-620; Homo sapiens, SW-620, read-out: LC50", "value": 54.5, "unit": "µM"}, {"measurement": "IC (TGI)", "setting": "SW-620; Homo sapiens, SW-620, read-out: TGI", "value": 12.3, "unit": "µM"}, {"measurement": "Percent Growth", "setting": "SW-620; Log10 Concentration −4.0", "value": "−70", "unit": "%"}, {"measurement": "Percent Growth", "setting": "SW-620; Log10 Concentration −5.0", "value": 7, "unit": "%"}, {"measurement": "Percent Growth", "setting": "SW-620; Log10 Concentration −6.0", "value": 92, "unit": "%"}, {"measurement": "Percent Growth", "setting": "SW-620; Log10 Concentration −7.0", "value": 105, "unit": "%"}, {"measurement": "Percent Growth", "setting": "SW-620; Log10 Concentration −8.0", "value": 109, "unit": "%"}, {"measurement": "GI50", "setting": "SK-OV-3; Homo sapiens, SK-OV-3", "value": 26.2, "unit": "µM"}, {"measurement": "CC50", "setting": "SK-OV-3; Homo sapiens, SK-OV-3, read-out: LC50", "value": "> 100", "unit": "µM"}, {"measurement": "IC (TGI)", "setting": "SK-OV-3; Homo sapiens, SK-OV-3, read-out: TGI", "value": 97.4, "unit": "µM"}, {"measurement": "Percent Growth", "setting": "SK-OV-3; SK-OV-3, Log10 Concentration −4.0", "value": "−1", "unit": "%"}, {"measurement": "Percent Growth", "setting": "SK-OV-3; SK-OV-3, Log10 Concentration −5.0", "value": 87, "unit": "%"}, {"measurement": "Percent Growth", "setting": "SK-OV-3; SK-OV-3, Log10 Concentration −6.0", "value": 103, "unit": "%"}, {"measurement": "Percent Growth", "setting": "SK-OV-3; SK-OV-3, Log10 Concentration −7.0", "value": 187, "unit": "%"}, {"measurement": "Percent Growth", "setting": "SK-OV-3; SK-OV-3, Log10 Concentration −8.0", "value": 106, "unit": "%"}, {"measurement": "GI50", "setting": "TK-10; Homo sapiens", "value": 3.13, "unit": "µM"}, {"measurement": "GI50", "setting": "TK-10; Homo sapiens, 5-dose assay", "value": 3.78, "unit": "µM"}, {"measurement": "CC50", "setting": "TK-10; Homo sapiens, TK-10, read-out: LC50", "value": 37.5, "unit": "µM"}, {"measurement": "IC (TGI)", "setting": "TK-10; Homo sapiens, TK-10, read-out: TGI", "value": 12.9, "unit": "µM"}, {"measurement": "Percent Growth", "setting": "TK-10; Log10 Concentration −4.0", "value": "−96", "unit": "%"}, {"measurement": "Percent Growth", "setting": "TK-10; Log10 Concentration −5.0", "value": 12, "unit": "%"}, {"measurement": "Percent Growth", "setting": "TK-10; Log10 Concentration −6.0", "value": 102, "unit": "%"}, {"measurement": "Percent Growth", "setting": "TK-10; Log10 Concentration −7.0", "value": 104, "unit": "%"}, {"measurement": "Percent Growth", "setting": "TK-10; Log10 Concentration −8.0", "value": 101, "unit": "%"}, {"measurement": "GI50", "setting": "NCI-H23; Homo sapiens, NCI-H23", "value": 11.3, "unit": "µM"}, {"measurement": "CC50", "setting": "NCI-H23; Homo sapiens, NCI-H23, read-out: LC50", "value": 78.8, "unit": "µM"}, {"measurement": "IC (TGI)", "setting": "NCI-H23; Homo sapiens, NCI-H23, read-out: TGI", "value": 29.9, "unit": "µM"}, {"measurement": "Percent Growth", "setting": "NCI-H23; NCI-H23, Log10 Concentration −4.0", "value": "−62", "unit": "%"}, {"measurement": "Percent Growth", "setting": "NCI-H23; NCI-H23, Log10 Concentration −5.0", "value": 56, "unit": "%"}, {"measurement": "Percent Growth", "setting": "NCI-H23; NCI-H23, Log10 Concentration −6.0", "value": 100, "unit": "%"}, {"measurement": "Percent Growth", "setting": "NCI-H23; NCI-H23, Log10 Concentration −7.0", "value": 101, "unit": "%"}, {"measurement": "Percent Growth", "setting": "NCI-H23; NCI-H23, Log10 Concentration −8.0", "value": 104, "unit": "%"}, {"measurement": "GI50", "setting": "M14; Homo sapiens, M14", "value": 5.58, "unit": "µM"}, {"measurement": "CC50", "setting": "M14; Homo sapiens, M14, read-out: LC50", "value": 66.7, "unit": "µM"}, {"measurement": "IC (TGI)", "setting": "M14; Homo sapiens, M14, read-out: TGI", "value": 21.6, "unit": "µM"}, {"measurement": "Percent Growth", "setting": "M14; M14, Log10 Concentration −4.0", "value": "−68", "unit": "%"}, {"measurement": "Percent Growth", "setting": "M14; M14, Log10 Concentration −5.0", "value": 34, "unit": "%"}, {"measurement": "Percent Growth", "setting": "M14; M14, Log10 Concentration −6.0", "value": 97, "unit": "%"}, {"measurement": "Percent Growth", "setting": "M14; M14, Log10 Concentration −7.0", "value": 102, "unit": "%"}, {"measurement": "Percent Growth", "setting": "M14; M14, Log10 Concentration −8.0", "value": 100, "unit": "%"}, {"measurement": "GI50", "setting": "NCI-H522; Homo sapiens, NCI-H522", "value": 1.64, "unit": "µM"}, {"measurement": "CC50", "setting": "NCI-H522; Homo sapiens, NCI-H522, read-out: LC50", "value": 9.29, "unit": "µM"}, {"measurement": "IC (TGI)", "setting": "NCI-H522; Homo sapiens, NCI-H522, read-out: TGI", "value": 3.9, "unit": "µM"}, {"measurement": "Percent Growth", "setting": "NCI-H522; NCI-H522, Log10 Concentration −4.0", "value": "−69", "unit": "%"}, {"measurement": "Percent Growth", "setting": "NCI-H522; NCI-H522, Log10 Concentration −5.0", "value": "−54", "unit": "%"}, {"measurement": "Percent Growth", "setting": "NCI-H522; NCI-H522, Log10 Concentration −6.0", "value": 76, "unit": "%"}, {"measurement": "Percent Growth", "setting": "NCI-H522; NCI-H522, Log10 Concentration −7.0", "value": 96, "unit": "%"}, {"measurement": "Percent Growth", "setting": "NCI-H522; NCI-H522, Log10 Concentration −8.0", "value": 95, "unit": "%"}, {"measurement": "GI50", "setting": "SK-MEL-2; Homo sapiens, SK-MEL-2", "value": 15.1, "unit": "µM"}, {"measurement": "CC50", "setting": "SK-MEL-2; Homo sapiens, SK-MEL-2, read-out: LC50", "value": 69, "unit": "µM"}, {"measurement": "IC (TGI)", "setting": "SK-MEL-2; Homo sapiens, SK-MEL-2, read-out: TGI", "value": 32.3, "unit": "µM"}, {"measurement": "Percent Growth", "setting": "SK-MEL-2; SK-MEL-2, Log10 Concentration −4.0", "value": "−74", "unit": "%"}, {"measurement": "Percent Growth", "setting": "SK-MEL-2; SK-MEL-2, Log10 Concentration −5.0", "value": 77, "unit": "%"}, {"measurement": "Percent Growth", "setting": "SK-MEL-2; SK-MEL-2, Log10 Concentration −6.0", "value": 112, "unit": "%"}, {"measurement": "Percent Growth", "setting": "SK-MEL-2; SK-MEL-2, Log10 Concentration −7.0", "value": 110, "unit": "%"}, {"measurement": "Percent Growth", "setting": "SK-MEL-2; SK-MEL-2, Log10 Concentration −8.0", "value": 109, "unit": "%"}, {"measurement": "GI50", "setting": "SF-268; Homo sapiens, SF-268", "value": 16.2, "unit": "µM"}, {"measurement": "CC50", "setting": "SF-268; Homo sapiens, SF-268, read-out: LC50", "value": 71.7, "unit": "µM"}, {"measurement": "IC (TGI)", "setting": "SF-268; Homo sapiens, SF-268, read-out: TGI", "value": 34, "unit": "µM"}, {"measurement": "Percent Growth", "setting": "SF-268; SF-268, Log10 Concentration −4.0", "value": "−72", "unit": "%"}, {"measurement": "Percent Growth", "setting": "SF-268; SF-268, Log10 Concentration −5.0", "value": 82, "unit": "%"}, {"measurement": "Percent Growth", "setting": "SF-268; SF-268, Log10 Concentration −6.0", "value": 102, "unit": "%"}, {"measurement": "Percent Growth", "setting": "SF-268; SF-268, Log10 Concentration −7.0", "value": 109, "unit": "%"}]}
